Reference: patent publication US20190209506A1, “METHODS OF REDUCING OR PREVENTING OXIDATION OF LDL OR LIPID MEMBRANES IN A SUBJECT IN NEED THEREOF” (Amarin Pharmaceuticals Ireland Limited, priority 2018, published 2019)
Values joined by “and” are separate entries in the source; they are usually repeats but may differ in a detail not shown here. Identical values can stand only once.

How the values were obtained:
human sdLDL [1] = test: Copper-induced sdLDL oxidation with fatty acids, TBARS/MDA (Example 14); type: biochemical; settings: 1.0 μM; for effect on lipoprotein oxidation compared to vehicle / inhibition of lipoprotein oxidation versus vehicle: 40 minutes; for effect on oxidation: 60 minutes
Experimental: Venous blood was collected from healthy volunteers into vacutainer tubes. Plasma was separated by centrifugation at 3000 g for 25 min at 4° C. and adjusted to a density of 1.020 g/mL with KBr. sdLDL was isolated from the plasma of healthy volunteers by iodixanol density gradient ultracentrifugation and adjusted to a final apolipoprotein concentration of 2 mg/mL. An aliquot of sdLDL (50 μL) was incubated with either 10 μL vehicle (ethanol) or 10 μL FA (EPA, ETE, AA, EA, DHA, DPA, ALA, LA or SA) treatment stock solution (100 μM) for 30 min at 37° C. Oxidation was initiated with addition of initiator CuSO4 (10.0 μM). At certain time points (0, 40, 60, and 120 minutes), […] were removed from each subfraction and combined with 1.0 mL thiobarbituric acid (0.5%), 10 μL trichloroacetic acid (10%), 10 μL butylated hydroxytoluene (BHT; 35 mM in ethanol), and 10 μL ethylenediaminetetraacetic acid (EDTA; 5 mM). Sample aliquots were incubated at 100° C. for 30 min and then assayed for the formation of thiobarbituric acid reactive substances (TBARS), which have a molar absorptivity (ε) value of 1.56×105 M^−1 cm^−1 at 532 nm and are largely derived from the reaction of thiobarbituric acid with MDA, a reactive aldehyde produced by sdLDL oxidation. Sample TBARS concentrations were determined spectrophotometrically by measuring sample absorbances against a standard curve derived from the hydrolysis of 1,1,3,3-tetramethoxypropane.

[2] = Membrane cholesterol domain structural integrity, x-ray diffraction (Example 9); settings: D/P mole ratio 1:30, C/P 1.5:1
Experimental: Multilamellar vesicles (MLVs) were prepared as binary mixtures that include palmitoyloleoylphosphatidylcholine (POPC) (1.0 mg total phospholipid per sample) and cholesterol at an elevated cholesterol-to-phospholipid (C/P) mole ratio of 1.5:1. […] Samples were shell-dried under nitrogen gas and placed under vacuum for 3 hours to remove residual solvent at room temperature. After desiccation, each sample was resuspended in saline buffer (0.5 mM HEPES, 154 mM NaCl, pH 7.3) to yield a final phospholipid concentration of 2.5 mg/mL. Lipid suspensions were then vortexed for 3 minutes at ambient temperature to form MLVs.
Briefly, a 100 μL aliquot of each MLV preparation (containing 250 μg MLV) was transferred to a Lucite® sedimentation cell fitted with an aluminum foil substrate designed to collect MLVs into a single membrane pellet upon centrifugation. Samples were then loaded into a Sorvall AH-629 swinging bucket rotor (DuPont Corp., Wilmington, Del.) and centrifuged at 35,000 g, 5° C., for 90 minutes.
After centrifugal orientation, sample supernatants were aspirated and aluminum foil substrates, each supporting a single membrane pellet, were removed from the sedimentation cells. Sample pellets were dried for 5-10 minutes at ambient conditions, mounted onto curved glass supports, and placed in hermetically-sealed, brass or glass containers (for immediate analysis or temporary storage, respectively). All x-ray diffraction experiments were conducted at 20° C., 74% relative humidity. The latter was established by exposing membrane samples to saturated solutions of […] (K2C4H4O6.½H2O) for at least 1 hour prior to experimental analysis.
Oriented membrane samples were aligned at grazing incidence with respect to a collimated, mono-chromatic CuKα x-ray beam (Kα1 and Kα2 unresolved; λ=1.54 Å) produced by a Rigaku Rotaflex RU-200, high-brilliance microfocus generator (Rigaku-MSC, The Woodlands, Tex.) as previously described (Mason et al., Biophys. J., vol. 55(4), pages 769-778 (1989)). The samples were initially subjected to x-ray diffraction analysis at least 12 hours after formation of the membrane pellets and retested for up to several days. Analytical x-rays were generated by electron bombardment of a rotating copper anode and are filtered through a thin nickel foil to provide monochromatic radiation (λ=1.54 Å). Collimation of the x-ray beam was achieved using a single Franks mirror. Diffraction data were collected on a one-dimensional, position-sensitive electron detector (Hecus X-ray Systems, Graz, Austria) at a sample-to-detector distance of 150 mm from the sample site.
The d-space for any given membrane multi bilayer is a measurement of the unit cell periodicity of the membrane lipid bilayer (e.g., the distance from the center of one lipid bilayer to the next including surface hydration), and is calculated from Bragg's Law, hλ=2d sin θ, where h is the diffraction order, λ is the wavelength of the x-ray radiation (1.54 Å), d is the membrane lipid bilayer unit cell periodicity, and θ is the Bragg angle equal to one-half the angle between the incident beam and scattered beam.
The presence of cholesterol domains in a given membrane sample results in the production of distinct Bragg (diffraction) peaks having singular periodicity values of 34 and 17 Å (typically referred to as first- and second-order cholesterol domain peaks). Under the specific temperature and relative humidity conditions established for these experiments, the second-order, 17 Å cholesterol domain peak was well-delineated from other, neighboring cholesterol and phospholipid diffraction peaks and was thus used to quantitate relative cholesterol domain peak intensity. Routines written in Origin 8.6 (OriginLab Corporation, Northampton, Mass.) were used to determine total peak area (associated with all diffraction peaks in a given pattern) against which the second-order cholesterol domain peak was normalized.

[3] = LOOH formation in membrane vesicles, fatty acid comparison (Example 16); type: biochemical; settings: 5 μM; 0.1 μM copper sulfate, 48 hours
Experimental: Iodometric approaches were used to measure in vitro LOOH formation in membrane vesicles reconstituted as binary mixtures of cholesterol and dilinoleoyl phosphatidylcholine. Vesicles were prepared at a cholesterol-to-phospholipid mole ratio of 0.6:1 and subjected to autoxidation (e.g., lipid oxidation) at 37° C. Lipid oxidation was stimulated with 0.1 μM copper sulfate for 48 hours. All FAs were delivered at 5 and 10 μM.

human sdLDL [4] = test: Glucose-induced sdLDL oxidation, MDA/TBARS (Example 10); type: biochemical; settings: 10 μM; glucose 200 mg/dL; 1 hr
Experimental: Vitamin E (α-tocopherol) purchased from Sigma-Aldrich was prepared in ethanol at 1.0 mM (ε=3.06×10^4M^−1 cm^−1 at 294 nm) prior to experimental use. Test compounds were further diluted in ethanol or aqueous buffer as needed. Phosphate Buffered Saline (PBS) purchased from Sigma-Aldrich was prepared in double distilled water at 10 mM (138 mM NaCl, 2.7 mM KCl, pH 7.4). Glucose prepared in PBS was added to test samples to achieve a final concentration of 11.0 mM (200 mg/dL).
LDL and sdLDL were isolated from the plasma of healthy volunteers by iodixanol density gradient ultracentrifugation and adjusted to a final apolipoprotein concentration of 10 mg/mL. […] Sample aliquots were incubated at 100° C. for 30 minutes and then assayed for the formation of thiobarbituric acid-reactive substances (TBARS), having a molar absorptivity (ε) value of 1.56×10^5 M^−1 cm^−1 at 532 nm and were derived principally from the reaction of thiobarbituric acid with malondialdehyde (MDA). Lipid oxidation was measured by the colorimetric detection of malondialdehyde (MDA), a marker of oxidative stress.

human LDL = test: Copper-induced oxidation of unfractionated LDL, TBARS (Example 7); type: biochemical; settings: 10 μM; 1 hour
Experimental: An experiment to study the antioxidant effect of EPA in LDL and small dense LDL (“sdLDL”) was performed. LDL and sdLDL were isolated from the plasma of healthy volunteers by iodixanol density gradient ultracentrifugation, and adjusted to a final apolipoprotein concentration of 2 mg/mL. […] Vitamin E was also incubated with sample aliquots as a positive control.

human sdLDL [5] = test: Copper-induced sdLDL oxidation, TBARS (Example 7); type: biochemical; settings: 10 μM; 1 hour
Experimental: An experiment to study the antioxidant effect of EPA in LDL and small dense LDL (“sdLDL”) was performed. LDL and sdLDL were isolated from the plasma of healthy volunteers by iodixanol density gradient ultracentrifugation, and adjusted to a final apolipoprotein concentration of 2 mg/mL. […] Lipid oxidation was initiated with 10 μM CuSO4 and monitored by the colorimetric detection of thiobarbituric acid reactive substances (TBARS) for 1 hr. Vitamin E was also incubated with sample aliquots as a positive control.

| Molecule | effect on lipoprotein oxidation compared to vehicle (human sdLDL [1]) | MDA Equivalents (Mean ± SD) (human sdLDL [1]; time point 0 min) [µM] | MDA Equivalents (Mean ± SD) (human sdLDL [1]; time point 40 min) [µM] | MDA Equivalents (Mean ± SD) (human sdLDL [1]; time point 60 min) [µM] | MDA Equivalents (Mean ± SD) (human sdLDL [1]; time point 120 min) [µM] | % change Vs control (cholesterol domain peak intensity) [2] | Relative Cholesterol Domain Peak Intensity [2] | other results |
| --- | --- | --- | --- | --- | --- | --- | --- | --- |
| CCCCC/C=C\C/C=C\C/C=C\C/C=C\CCCC(=O)O [AA, arachidonic acid] | failed to inhibit lipoprotein oxidation | 0.67 ± 0.06 | 10.89 ± 0.35 | 11.86 ± 0.46 | 12.88 ± 0.60 | −45.2% and −46.8 ± 15.2% | 22.5 ± 4.3 |  |
| CC/C=C\C/C=C\C/C=C\CCCCCCCC(=O)O [ALA, α-linolenic acid] |  | 0.40 ± 0.06 | 8.91 ± 0.24 | 11.48 ± 0.18 | 12.94 ± 0.40 | −46.8% and −45.2 ± 11.3% | 23.2 ± 0.6 | reduction of LOOH levels compared to the vehicle [3]: 27%; inhibition of lipoprotein oxidation versus vehicle (human sdLDL [1]): 16% and 15%; effect on oxidation (human sdLDL [1]): failed to inhibit oxidation at 60 minutes |
| CCCCCCCCCCCCCCCCCCCC(=O)O [EA, eicosanoic acid] | did not completely inhibit oxidation compared to vehicle | 1.06 ± 0.09 | 11.27 ± 0.28 | 11.65 ± 0.65 | 13.22 ± 0.68 |  |  |  |
| CCCCC/C=C\C/C=C\CCCCCCCC(=O)O [LA, linoleic acid] | did not completely lipoprotein oxidation | 0.57 ± 0.12 | 10.74 ± 0.27 | 11.89 ± 0.30 | 12.55 ± 0.78 |  |  |  |
| CCCCCCCC/C=C\CCCCCCCC(=O)O [OA, oleic acid] | did not completely lipoprotein oxidation | 0.78 ± 0.13 | 10.98 ± 0.36 | 12.00 ± 0.19 | 12.57 ± 0.38 |  |  |  |
| CCCCCCCCCCCCCCCCCC(=O)O [SA, stearic acid] | did not completely inhibit oxidation compared to vehicle | 0.78 ± 0.01 | 10.60 ± 0.21 | 12.07 ± 0.23 | 12.33 ± 0.10 |  |  |  |
| Cc1ccc(C)c(OCCCC(C)(C)C(=O)O)c1 [gemfibrozil] |  |  |  |  |  | 11% | 46.9±12.6 | effect on glucose-induced sdLDL oxidation (human sdLDL [4]): did not inhibit glucose-induced sdLDL oxidation; effect on unfractionated LDL oxidation (human LDL): no significant effect on unfractionated LDL oxidation; effect on sdLDL oxidation compared to vehicle-treated controls (human sdLDL [5]): no significant effect on sdLDL oxidation; % change Vs control (cholesterol domain peak intensity) ([2]; listed as Gemfib): −10.9 ± 43.3%; Relative Cholesterol Domain Peak Intensity ([2]; listed as Gemfib): 46.9 ± 12.6 |
| CC1(C)[C@@H](O[C@H]2O[C@H](C(=O)O)[C@@H](O)[C@H](O)[C@H]2O[C@@H]2O[C@H](C(=O)O)[C@@H](O)[C@H](O)[C@H]2O)CC[C@]2(C)[C@H]3C(=O)C=C4[C@@H]5C[C@@](C)(C(=O)O)CC[C@]5(C)CC[C@@]4(C)[C@]3(C)CC[C@@H]12 [glycyrrhizin] |  |  |  |  |  | −54.9 ± 12.3% | 19.1±1.2 | reduction in cholesterol domain peaks compared to vehicle [2]: 54.9%; Relative Cholesterol Domain Peak Intensity ([2]; listed as Glyc): 19.1 ± 1.2 |
| O=C(O)c1cccnc1 [niacin, nicotinic acid] |  |  |  |  |  | −35% | 27.5±12.2 | effect on glucose-induced sdLDL oxidation (human sdLDL [4]): did not inhibit glucose-induced sdLDL oxidation; effect on unfractionated LDL oxidation (human LDL): no significant effect on unfractionated LDL oxidation; effect on sdLDL oxidation compared to vehicle-treated controls (human sdLDL [5]): no significant effect on sdLDL oxidation; % change Vs control (cholesterol domain peak intensity) ([2]; listed as Niacin): −35.0 ± 30.8%; Relative Cholesterol Domain Peak Intensity ([2]; listed as Niacin): 27.5 ± 12.2 |
| eicosatrienoic acid [ETE] |  | 0.40 ± 0.11 | 7.19 ± 0.43 | 10.90 ± 0.28 | 12.57 ± 0.15 |  |  | reduction of LOOH levels compared to the vehicle [3]: 36%; inhibition of lipoprotein oxidation versus vehicle (human sdLDL [1]): 32%; effect on oxidation (human sdLDL [1]): failed to inhibit oxidation at 60 minutes |
